This note sets out measurements from US20150087677A1, “METHODS FOR TREATING VESTIBULOTOXICTY” (priority 2012, published 2015).

Assay [1] deals with vestibular hair cells. Format: cell-based, rat. Conditions: co-treatment with cimetidine (1000 μM) and cisplatin for 48 hrs, FIG. 3. The protocol: Vestibular end organs were aseptically removed from animals. Explants composed of sensory and nonsensory epithelia were placed on 5 μl of growth factor-reduced Matrigel on laminin (10 μg/ml)-coated glass coverslips. These preparations were incubated for 30 min at 37° C. in a 95%/5% O2/CO2 atmosphere at saturating moisture. Explants were then cultured in DMEM and F12 (50%/50% v/v) media supplemented with N2 mixture (2%). The medium was renewed every 4 d. […] Treated cultures were then fixed with PAF 4% for 1 hr. Labeling of hair bundles was processed using Alex488-conjugated phalloidin (1:700) overnight. After rinsing with PBS, cultures were mounted in Moviol (Calbiochem). Labelling was observed and image digitalized using an apotome microscope (Zeiss). Hair bundles per utricle were quantified using ImageJ software. Statistical analysis was processed with SigmaPlot software (Systat Software). Final image processing was performed with Adobe Photoshop software.

Assay [2] relates to cisplatin induced vestibulotoxicity. The assay is described as follows: Induced deficits of vestibular behavior after transtympanic cisplatin (vestibular deficit score). In kind it is in vivo, rat. The settings on record: for time after the lesion at which protective effects are first observed: effects persist over the following days. On the procedure:
Vestibular deficit associated behaviors were scored on a scale from 0 to 4, respectively ranging from normal behavior (rating 0) to maximal identified vestibular impairment (rating 4). […] Rats were scored for vestibular deficits after transtympanic injection of cisplatin (50 μl, 2 mg/ml) and, evaluated from 4 to 336 hrs after the injection (FIG. 4). Scores were expressed as mean (±sem). For preventive treatment, injection of cimetidine (i.p., 12 mg/kg) was injected 4 hours before the transtympanic injection of cisplatin. Sham animals received saline (i.p) 4 hours before the lesion. To focus on the preventive action of transtympanic injection of the compounds of the invention in the first 72 hours, ototoxicity is induced by a transtympanic injection (50 μl) of cisplatin (2 mg/ml in saline; 6.7 mM) and a determined ratio of corresponding molar dose of compounds are premixed and injected transtympanically with cisplatin. For example, for the dose ratio 1/2 of compound/cisplatin, a solution of 3.5 mM of compound of interest in addition to the 6.7 mM of cisplatin in saline is prepared and, 50 μl of this mixed saline solution is injected transtympanically at TO. Different control animals are run in parallel: saline only, cisplatin (6.7 mM) only to control the initial lesion, and the compounds of interest alone at different doses in saline to control potential ototoxicity of the compound independently of cisplatin, are with cisplatin. […] For transtympanic experiments, rats were scored for vestibular deficits just before the transtympanic injection, TO and, evaluated at 24, 48 & 72 hours after the injection (FIGS. 5 to 11). Scores were expressed as mean (±sem).

[3] abbreviates: transtympanic injection premixed with cisplatin, rats, FIGS. 5 to 11.
The mark [4] stands for this setting: transtympanic injection, FIGS. 5 to 11.

As for `CN/C(=N/CCSCc1nc[nH]c1C)NC#N` [cimetidine], the “effect on cisplatin-induced vestibular hair cell loss in vitro” value in assay [1] is reported as “reduces vestibular hair cell loss”. Further, the “effect on vestibular toxicity and behavioral deficits induced by cisplatin” value (from here on “effect … by cisplatin”) was “reduces the vestibular toxicity and behavioral deficits” in assay [2] (adult rats, systemic (i.p., 12 mg/kg) pretreatment 4 hrs before transtympanic cisplatin, FIG. 4); “reduces the vestibular toxicity and behavioral deficits” in assay [2] (setting [3]). The “time after the lesion at which protective effects are first observed” value (“time after the lesion” below) in assay [2] (systemic (i.p.) pretreatment t-4 hrs, FIG. 4) was determined as 48 h; in assay [2] (setting [4]), 24 h.

As to `Cc1c(OCC(F)(F)F)ccnc1C[S+]([O-])c1nc2ccccc2[nH]1` (stereo not shown) [lansoprazole], the “effect … by cisplatin” value in assay [2] (setting [3]) was “reduces the vestibular toxicity and behavioral deficits”. In assay [2] (setting [4]), the “time after the lesion” value came out at 24 h.

With `COc1ccc2[nH]c([S+]([O-])Cc3ncc(C)c(OC)c3C)nc2c1` (stereo not shown) [omeprazole], the “time after the lesion” value in assay [2] (setting [4]) was 24 h.

Take `COc1ccnc(C[S+]([O-])c2nc3ccc(OC(F)F)cc3[nH]2)c1OC` (stereo not shown) [pantoprazole]: in assay [2] (setting [4]), the “time after the lesion” value was 24 h.

In the case of `CNC(=C[N+](=O)[O-])NCCSCc1ccc(CN(C)C)o1` [ranitidine], the “time after the lesion” value in assay [2] (setting [4]) is 24 h.

As to `COCCCOc1ccnc(C[S+]([O-])c2nc3ccccc3[nH]2)c1C` (stereo not shown) [rabeprazole], the “time after the lesion” value in assay [2] (setting [4]) is 24 h.

Consider `CNC(=C[N+](=O)[O-])NCCSCc1csc(CN(C)C)n1` [nizatidine], for which, in assay [2] (setting [3]), the “effect … by cisplatin” value was “reduces the vestibular toxicity and behavioral deficits”. For the same compound, in assay [2] (setting [4]), the “time after the lesion” value amounted to 24 h.
